Experiments:
Assay type in all cases: in vivo, C57BL/6 mice
[1] = tested on: inflammatory cells in BAL fluid; assay: Inflammatory cell count in BAL fluid of OVA/LPS-sensitized asthma animal models; settings: SU5416 1 mg/kg or 10 mg/kg i.p. 30 min before OVA/LPS sensitization (days 0, 1, 2, 7); 48 hours after last OVA injection (day 24); FIG. 9
Experimental: (§1) To construct asthma animal models, C57BL/6 (female, 6 weeks old) mice were divided into groups, each consisting of five mice and sensitized with 75 μg of ovalbumn (OVA) as an allergen and 10 μg of an endotoxin (lipopolysaccharide, LPS) as an adjuvant via an intranasal route on Day 0, 1, 2 and 7. Some mice in experiment groups were intraperitoneally injected with SU5416 (purchased from Sigma) at a dose of 1 mg/kg or 10 mg/kg, or anti-Flk-1 (purchased from R&D systems) at a dose of 0.1, 1 or 10 μg 30 min before the intranasal administration of OVA and LPS. On days 14, 15, 21 and 22, OVA (50 μg) was intranasally administered to the animals after anesthesia.
The mice were examined for pulmonary inflammation 6 hours (day 22) and 48 hours (day 24) after the last OVA administration. […]
(§2) The BAL fluid was centrifuged at 4° C. at 3000 rpm for 10 min and the cell pellet thus formed was suspended in PBS (phosphate buffered saline). […] In a 1000× magnified sight under an optical microscope, 300 or more inflammatory cells were observed and classified into macrophages, lymphocytes, neutrophils, and eosinophils which were then counted. In addition, levels of gamma interferon, responsible for Th1 inflammatory response, and IL-17 and IL-6, both responsible for Th17 inflammatory response, in the BAL fluid were quantified by ELISA. […]

[2] = tested on: gamma interferon, IL-17 and IL-6 in BAL fluid; assay: Cytokine levels (gamma interferon, IL-17, IL-6) in BAL fluid of OVA/LPS asthma animal models by ELISA
Experimental: as §1
The mice were examined for pulmonary inflammation 6 hours (day 22) and 48 hours (day 24) after the last OVA administration. In this regard, the mice were anesthetized by intraperitoneal injection of a mixture of ketamin and xylazine and allowed to undergo thoracotomy to expose the trachea into which a catheter was then inserted, followed by ligation. The airway was washed by injecting 1 mL of sterile saline twice to obtain bronchoalveolar lavage (BAL) fluid. […]
as §2
Mice in the experimental groups were intraperitoneally injected with 0.1, 1.0 and 10 μg of a monoclonal antibody against VEGFR-2 (anti-Flk-1, R&D Systems) while mice in the control group were intraperitoneally injected with PBS. […] BAL fluid obtained 24 hours after the sensitization (day 1) was quantitatively analyzed for inflammatory cell and IL-6 levels and the results are shown in FIG. 13.

[3] = tested on: immune cells isolated from local lymph nodes; assay: Cytokine secretion by local lymph node immune cells in response to allergen (OVA) stimulus, ELISA; settings: SU5416 upon sensitization; six hours after three OVA challenges (day 21); FIGS. 10b and 10c
Experimental: To construct asthma animal models, C57BL/6 (female, 6 weeks old) mice were divided into groups, each consisting of five mice and sensitized with 75 μg of ovalbumn (OVA) as an allergen and 10 μg of an endotoxin (lipopolysaccharide, LPS) as an adjuvant via an intranasal route on Day 0, 1, 2 and 7. Some mice in experiment groups were intraperitoneally injected with SU5416 (purchased from Sigma) at a dose of 1 mg/kg or 10 mg/kg, or anti-Flk-1 (purchased from R&D systems) at a dose of 0.1, 1 or 10 μg 30 min before the intranasal administration of OVA and LPS. […]
In this regard, the mice were anesthetized by intraperitoneal injection of a mixture of ketamin and xylazine and allowed to undergo thoracotomy to expose the trachea into which a catheter was then inserted, followed by ligation. The airway was washed by injecting 1 mL of sterile saline twice to obtain bronchoalveolar lavage (BAL) fluid. For the analysis of T lymphocytes in pulmonary tissues, cells were extracted from the local lymph nodes of the lung excised.
The cells obtained from the lymph nodes were incubated for 72 hours in RPMI (Gibco) supplemented with 100 μg/ml OVA, 10% FBS, and an antibiotic before respective cytokines responsible for Th1-, Th17- and Th2-mediated inflammatory responses were quantified using ELISA. […]

[4] = tested on: Th1- and Th17-mediated immune responses; assay: Overall conclusion on lung inflammation and Th1/Th17 immune responses in asthma animal models
Experimental: VEGFR inhibitors were assayed for inhibitory activity in asthma animal models suffering from Th17-mediated inflammation.
as §1
The mice were examined for pulmonary inflammation 6 hours (day 22) and 48 hours (day 24) after the last OVA administration. In this regard, the mice were anesthetized by intraperitoneal injection of a mixture of ketamin and xylazine and allowed to undergo thoracotomy to expose the trachea into which a catheter was then inserted, followed by ligation. The airway was washed by injecting 1 mL of sterile saline twice to obtain bronchoalveolar lavage (BAL) fluid. For the analysis of T lymphocytes in pulmonary tissues, cells were extracted from the local lymph nodes of the lung excised.

[5] = SU5416 upon sensitization, six hours after three rounds of OVA challenge (day 21), FIG. 10a

SMILES: Cc1cc(C)c(/C=C2\C(=O)Nc3ccccc32)[nH]1 [SU5416, Semaxanib]
- inflammatory cell count in BAL fluid [1]: reduced in a dose-dependent manner
- IL-6 level in BAL fluid ([2]; SU5416 10 mg/kg, 6 hours after three rounds of sensitization with OVA and LPS, vs OVA/LPS_sham, FIG. 11): lower amounts of IL-6 than did the control
- level of IL-17 in BAL fluid [2, 5]: significantly decrease
- level of gamma interferon in BAL fluid [2, 5]: significantly decrease
- IL-17 secreted by local lymph node immune cells in response to allergen stimulus [3]: significantly decreased level
- gamma interferon secreted by local lymph node immune cells in response to allergen stimulus [3]: significantly decreased level
- inflammation in the lung ([4]; summary of Examples 1 and 2): excellently suppress inflammation in the lung
- Th1- and Th17-mediated immune responses ([4]; summary of Examples 1 and 2, immunological perspective): suppressive of Th1- and Th17-mediated immune responses

Source: US8653146B2, “Method for treating Th17 inflammatory disease through inhibition of vascular endothelial growth factor receptors and pharmaceutical composition therefor” (Postech Academy-Industry Foundation, priority 2009, dated 2014)
